Test results: ChEMBL document CHEMBL1629692, “Susceptibility of gram-negative pathogens isolated from patients with complicated intra-abdominal infections in the United States, 2007-2008: results of the Study for Monitoring Antimicrobial Resistance Trends (SMART)” (2010)

Columns and labels:
Type in all cases: functional
[1] = system: Klebsiella oxytoca; assay: Antimicrobial activity against extended-spectrum beta-lactamase-positive Klebsiella oxytoca assessed as percent susceptible isolates by agar dilution method
[2] = system: Klebsiella aerogenes; assay: Antimicrobial activity against Enterobacter aerogenes obtained from patient with complicated intra-abdominal infection assessed as percent susceptible isolates by agar dilution method
[3] = system: Escherichia coli; assay: Antimicrobial activity against extended-spectrum beta-lactamase-positive Escherichia coli obtained from patient with complicated intra-abdominal infection assessed as percent susceptible isolates by agar dilution method
[4] = system: Proteus mirabilis; assay: Antimicrobial activity against extended-spectrum beta-lactamase-positive Proteus mirabilis assessed as percent susceptible isolates by agar dilution method
[5] = system: Serratia marcescens; assay: Antimicrobial activity against Serratia marcescens assessed as percent susceptible isolates by agar dilution method
[6] = system: Klebsiella pneumoniae; assay: Antimicrobial activity against Klebsiella pneumoniae assessed as percent susceptible isolates by agar dilution method
[7] = system: Citrobacter freundii; assay: Antimicrobial activity against Citrobacter freundii obtained from patient with complicated intra-abdominal infection assessed as percent susceptible isolates by agar dilution method
[8] = system: Escherichia coli; assay: Antimicrobial activity against extended-spectrum beta-lactamase-negative Escherichia coli obtained from patient with complicated intra-abdominal infection assessed as percent susceptible isolates by agar dilution method
[9] = system: Klebsiella pneumoniae; assay: Antimicrobial activity against extended-spectrum beta-lactamase-positive Klebsiella pneumoniae assessed as percent susceptible isolates by agar dilution method
[10] = system: Klebsiella pneumoniae; assay: Antimicrobial activity against extended-spectrum beta-lactamase-negative Klebsiella pneumoniae assessed as percent susceptible isolates by agar dilution method
[11] = system: Escherichia coli; assay: Antimicrobial activity against Escherichia coli obtained from patient with complicated intra-abdominal infection assessed as percent susceptible isolates by agar dilution method
[12] = system: Enterobacter cloacae; assay: Antimicrobial activity against Enterobacter cloacae obtained from patient with complicated intra-abdominal infection assessed as percent susceptible isolates by agar dilution method
[13] = system: Pseudomonas aeruginosa; assay: Antimicrobial activity against Pseudomonas aeruginosa assessed as percent susceptible isolates by agar dilution method
[14] = system: Pseudomonas fluorescens; assay: Antimicrobial activity against Pseudomonas fluorescens assessed as percent susceptible isolates by agar dilution method
[15] = system: Pasteurella sp.; assay: Antimicrobial activity against Pasteurella sp. assessed as percent susceptible isolates by agar dilution method
[16] = system: Acinetobacter sp.; assay: Antimicrobial activity against Acinetobacter sp. assessed as percent susceptible isolates by agar dilution method
[17] = system: Stenotrophomonas maltophilia; assay: Antimicrobial activity against Stenotrophomonas maltophilia assessed as percent susceptible isolates by agar dilution method
[18] = system: Enterobacteriaceae; assay: Antimicrobial activity against Enterobacteriaceae Extended-Spectrum beta-lactamase positive assessed as percent susceptible isolates by agar dilution method
[19] = system: Klebsiella pneumoniae; assay: Antimicrobial activity against extended-spectrum beta-lactamase-negative Klebsiella pneumoniae assessed as percent susceptible isolates by agar dilution method in presence of beta-lactamase inhibitor Tazobactam
[20] = system: Klebsiella pneumoniae; assay: Antimicrobial activity against extended-spectrum beta-lactamase-positive Klebsiella pneumoniae assessed as percent susceptible isolates by agar dilution method in presence of beta-lactamase inhibitor Tazobactam
[21] = system: Stenotrophomonas maltophilia; assay: Antimicrobial activity against Stenotrophomonas maltophilia assessed as percent susceptible isolates by agar dilution method in presence of beta-lactamase inhibitor Tazobactam
[22] = system: Pseudomonas fluorescens; assay: Antimicrobial activity against Pseudomonas fluorescens assessed as percent susceptible isolates by agar dilution method in presence of beta-lactamase inhibitor Tazobactam
[23] = system: Klebsiella oxytoca; assay: Antimicrobial activity against extended-spectrum beta-lactamase-positive Klebsiella oxytoca assessed as percent susceptible isolates be agar dilution method in presence of beta-lactamase inhibitor Tazobactam
[24] = system: Proteus mirabilis; assay: Antimicrobial activity against extended-spectrum beta-lactamase-positive Proteus mirabilis assessed as percent susceptible isolates by agar dilution method in presence of beta-lactamase inhibitor Tazobactam
[25] = system: Pasteurella sp.; assay: Antimicrobial activity against Pasteurella sp. assessed as percent susceptible isolates by agar dilution method in presence of beta-lactamase inhibitor Tazobactam
[26] = system: Escherichia coli; assay: Antimicrobial activity against extended-spectrum beta-lactamase-positive Escherichia coli obtained from patient with complicated intra-abdominal infection assessed as percent susceptible isolates by agar dilution method in presence of beta-lactamase inhibitor Tazobactam
[27] = system: Enterobacter cloacae; assay: Antimicrobial activity against Enterobacter cloacae obtained from patient with complicated intra-abdominal infection assessed as percent susceptible isolates by agar dilution method in presence of beta-lactamase inhibitor Tazobactam
[28] = system: Escherichia coli; assay: Antimicrobial activity against Escherichia coli obtained from patient with complicated intra-abdominal infection assessed as percent susceptible isolates by agar dilution method in presence of beta-lactamase inhibitor Tazobactam
[29] = system: Acinetobacter sp.; assay: Antimicrobial activity against Acinetobacter sp. assessed as percent susceptible isolates by agar dilution method in presence of beta-lactamase inhibitor Tazobactam
[30] = system: Klebsiella pneumoniae; assay: Antimicrobial activity against Klebsiella pneumoniae assessed as percent susceptible isolates by agar dilution method in presence of beta-lactamase inhibitor Tazobactam
[31] = system: Klebsiella aerogenes; assay: Antimicrobial activity against Enterobacter aerogenes obtained from patient with complicated intra-abdominal infection assessed as percent susceptible isolates by agar dilution method in presence of beta-lactamase inhibitor Tazobactam
[32] = system: Citrobacter freundii; assay: Antimicrobial activity against Citrobacter freundii obtained from patient with complicated intra-abdominal infection assessed as percent susceptible isolates by agar dilution method in presence of beta-lactamase inhibitor Tazobactam
[33] = system: Pseudomonas aeruginosa; assay: Antimicrobial activity against Pseudomonas aeruginosa assessed as percent susceptible isolates by agar dilution method in presence of beta-lactamase inhibitor Tazobactam
[34] = system: Serratia marcescens; assay: Antimicrobial activity against Serratia marcescens assessed as percent susceptible isolates by agar dilution method in presence of beta-lactamase inhibitor Tazobactam
[35] = system: Escherichia coli; assay: Antimicrobial activity against extended-spectrum beta-lactamase-negative Escherichia coli obtained from patient with complicated intra-abdominal infection assessed as percent susceptible isolates by agar dilution method in presence of beta-lactamase inhibitor Tazobactam

C[C@@H](O)[C@H]1C(=O)N2C(C(=O)O)=C(S[C@@H]3CN[C@H](C(=O)Nc4cccc(C(=O)O)c4)C3)[C@H](C)[C@H]12
Activity [1]: 100%
Activity [2]: 100%
Activity [3]: 100%
Activity [4]: 100%
Activity [5]: 100%
Activity [6]: 96%
Activity [7]: 94%
Activity [8]: 99%
Activity [9]: 78%
Activity [10]: 100%
Activity [11]: 99%
Activity [12]: 92%

CO/N=C(\C(=O)N[C@@H]1C(=O)N2C(C(=O)[O-])=C(C[N+]3(C)CCCC3)CS[C@H]12)c1csc(N)n1
Activity [13]: 72%
Activity [14]: 23%
Activity [1]: 96%
Activity [2]: 100%
Activity [3]: 48%
Activity [4]: 100%
Activity [15]: 23%
Activity [5]: 100%
Activity [16]: 23%
Activity [6]: 91%
Activity [7]: 94%
Activity [9]: 47%
Activity [10]: 100%
Activity [17]: 23%

NCC[C@H](O)C(=O)N[C@@H]1C[C@H](N)[C@@H](O[C@H]2O[C@H](CN)[C@@H](O)[C@H](O)[C@H]2O)[C@H](O)[C@H]1O[C@H]1O[C@H](CO)[C@@H](O)[C@H](N)[C@H]1O [AMIKACIN]
Activity [13]: 96%
Activity [14]: 31%
Activity [1]: 100%
Activity [2]: 100%
Activity [3]: 71%
Activity [4]: 100%
Activity [15]: 31%
Activity [5]: 100%
Activity [16]: 31%
Activity [6]: 95%
Activity [7]: 100%
Activity [8]: 100%
Activity [9]: 69%
Activity [10]: 100%
Activity [11]: 98%
Activity [17]: 31%
Activity [12]: 99%

CO/N=C(\C(=O)N[C@@H]1C(=O)N2C(C(=O)O)=C(COC(C)=O)CS[C@H]12)c1csc(N)n1 [CEFOTAXIME]
Activity [13]: 9%
Activity [14]: 8%
Activity [1]: 96%
Activity [2]: 79%
Activity [3]: 38%
Activity [4]: 100%
Activity [15]: 8%
Activity [5]: 100%
Activity [16]: 8%
Activity [6]: 85%
Activity [7]: 67%
Activity [8]: 99%
Activity [9]: 19%
Activity [10]: 99%
Activity [11]: 96%
Activity [17]: 8%
Activity [18]: 6%
Activity [12]: 62%

CO[C@@]1(NC(=O)Cc2cccs2)C(=O)N2C(C(=O)O)=C(COC(N)=O)CS[C@@H]21 [CEFOXITIN]
Activity [1]: 96%
Activity [2]: 8%
Activity [3]: 71%
Activity [4]: 100%
Activity [5]: 26%
Activity [6]: 84%
Activity [7]: 17%
Activity [8]: 94%
Activity [9]: 66%
Activity [10]: 87%
Activity [11]: 93%
Activity [12]: 1%

CC(C)(O/N=C(\C(=O)N[C@@H]1C(=O)N2C(C(=O)[O-])=C(C[n+]3ccccc3)CS[C@H]12)c1csc(N)n1)C(=O)O [CEFTAZIDIME]
Activity [13]: 76%
Activity [14]: 32%
Activity [1]: 96%
Activity [2]: 63%
Activity [3]: 52%
Activity [4]: 94%
Activity [15]: 32%
Activity [5]: 100%
Activity [16]: 32%
Activity [6]: 86%
Activity [7]: 72%
Activity [8]: 98%
Activity [9]: 19%
Activity [10]: 100%
Activity [11]: 96%
Activity [17]: 32%
Activity [18]: 31%
Activity [12]: 66%

CO/N=C(\C(=O)N[C@@H]1C(=O)N2C(C(=O)O)=C(CSc3nc(=O)c(O)nn3C)CS[C@H]12)c1csc(N)n1 [CEFTRIAXONE]
Activity [13]: 17%
Activity [14]: 15%
Activity [1]: 89%
Activity [2]: 79%
Activity [3]: 38%
Activity [4]: 100%
Activity [15]: 15%
Activity [5]: 100%
Activity [16]: 15%
Activity [6]: 85%
Activity [7]: 67%
Activity [8]: 98%
Activity [9]: 19%
Activity [10]: 99%
Activity [11]: 96%
Activity [17]: 15%
Activity [18]: 7%
Activity [12]: 64%

O=C(O)c1cn(C2CC2)c2cc(N3CCNCC3)c(F)cc2c1=O [CIPROFLOXACIN]
Activity [14]: 15%
Activity [1]: 96%
Activity [2]: 96%
Activity [3]: 33%
Activity [4]: 97%
Activity [15]: 15%
Activity [5]: 93%
Activity [16]: 15%
Activity [6]: 80%
Activity [7]: 72%
Activity [8]: 82%
Activity [9]: 19%
Activity [17]: 15%

C[C@@H](O)[C@H]1C(=O)N2C(C(=O)O)=C(SCCNC=N)C[C@H]12 [IMIPENEM ANHYDROUS]
Activity [13]: 78%
Activity [14]: 69%
Activity [1]: 100%
Activity [2]: 100%
Activity [3]: 100%
Activity [4]: 93%
Activity [15]: 69%
Activity [5]: 100%
Activity [16]: 69%
Activity [6]: 99%
Activity [7]: 100%
Activity [8]: 100%
Activity [9]: 94%
Activity [10]: 100%
Activity [11]: 100%
Activity [17]: 69%
Activity [12]: 100%

C[C@H]1COc2c(N3CCN(C)CC3)c(F)cc3c(=O)c(C(=O)O)cn1c23.C[C@H]1COc2c(N3CCN(C)CC3)c(F)cc3c(=O)c(C(=O)O)cn1c23.O [LEVOFLOXACIN]
Activity [13]: 72%
Activity [14]: 47%
Activity [1]: 100%
Activity [2]: 96%
Activity [3]: 33%
Activity [4]: 100%
Activity [15]: 47%
Activity [5]: 93%
Activity [16]: 47%
Activity [6]: 84%
Activity [7]: 78%
Activity [8]: 83%
Activity [9]: 28%
Activity [10]: 96%
Activity [11]: 81%
Activity [17]: 47%
Activity [12]: 88%

CCN1CCN(C(=O)N[C@@H](C(=O)N[C@@H]2C(=O)N3[C@@H]2SC(C)(C)[C@@H]3C(=O)O)c2ccccc2)C(=O)C1=O [PIPERACILLIN]
Activity [19]: 97%
Activity [20]: 28%
Activity [21]: 23%
Activity [22]: 23%
Activity [23]: 89%
Activity [24]: 100%
Activity [25]: 23%
Activity [26]: 62%
Activity [27]: 69%
Activity [28]: 96%
Activity [29]: 23%
Activity [30]: 85%
Activity [31]: 88%
Activity [32]: 72%
Activity [33]: 83%
Activity [34]: 100%
Activity [35]: 98%
